Structures can show the parent of a compound that is named as a salt. Where two headings read alike, the source gives them in different places.
Experiments:
[1] = system: bleeding time in male SD rats; details: rat, in vivo, po
Procedure: (§1) 5-week-old male SD rats (body weight is 138 to 152 g), 6 rats per one group, were used. […] 50 minutes after the administration, 50 mg/kg of pentobarbital sodium was intraperitoneally injected into the rat.
(§2) 10 minutes later, the tail was cut off at a position of 2 mm from the tip using a surgical blade, and was immediately immersed into a glass container (Magnus bath) filled with physiological saline maintained at approximately 37° C. to observe until the rat stopped bleeding.
(§3) The bleeding time was taken as the time from the tail cutting to the cessation of bleeding. The tail was marked at a position of 5 cm from the tip in advance, and was immersed in the physiological saline in the glass container at the depth of 5 cm from the surface. The maximum observation time was defined as 60 minutes after the tail cutting.

[2] = Bioabsorption: plasma concentration measurement in rats with oral administration; assay type: in vivo, rat; details: for concentration at 0.25 h: read-out: plasma concentration, Mean, time point 0.25 h; for concentration at 0.5 h: read-out: plasma concentration, Mean, time point 0.5 h; for concentration at 1 h: read-out: plasma concentration, Mean, time point 1.0 h; for concentration at 2 h: read-out: plasma concentration, Mean, time point 2.0 h; for concentration at 4 h: read-out: plasma concentration, Mean, time point 4.0 h; for concentration at 6 h: read-out: plasma concentration, Mean, time point 6.0 h; for concentration at 8 h: read-out: plasma concentration, Mean, time point 8.0 h; for AUC: read-out: AUC (area under the plasma concentration-time curve); for Cmax: read-out: Cmax (maximum plasma concentration); for Tmax: read-out: Tmax (time required to reach the maximum plasma concentration)
Procedure: We conducted a plasma concentration measurement in rats with oral administration to compare the absorption of the compound of the present invention (compound No. 451) with the comparative compound A and B.
6-week-old male SD rats (body weight is 200 to 230 g) were used for this test (3 rats per one group). The required amount of test compound was weighed and pulverized in an agate mortar. Then, a 0.5 (w/v) % methyl cellulose solution was added to prepare the suspension at the concentration of 10 mg/5 mL. 5 mL per kg body weight of the suspension was orally administered to rats once using a feeding tube for rats. About 0.3 mL of blood was sampled from the caudal vein using a heparinized glass tube at 0.25, 0.5, 1, 2, 4, 6, 8, 12 and 24 hours after the administration, and was centrifuged to obtain plasma.
30 μL of methanol and 300 µL of acetonitrile were added to 120 μL of the obtained plasma, and mixed with a Vortex mixer for 15 seconds. The sample was centrifuged to obtain 300 μL of the supernatant. The supernatant was dried, and 120 μL of an eluent was added thereto, and then mixed with a Vortex mixer for 15 seconds. After the mixture was centrifuged, the amount of each test compound remaining in the plasma was determined with liquid chromatography.
40 μL of the sample, as prepared above, was applied to liquid chromatography with the following conditions to conduct the measurement.
• Column: InertsiL (registered trademark) ODS-3 4.6 mmI.D.×250 mm; • Column temperature: 40° C.; • Eluent: Solution A (10 mmoL/L ammonium acetate:methanol=50:50), and Solution B (10 mmoL/L ammonium acetate:methanol=10:90); • Gradient condition (eluent composition): solution A→20 min.→solution B (5 min. elution)→1 min.→solution A (12 min. elution); • Flow rate: 1.0 mL; and • Detection wavelength: 314 nm.
• Column: InertsiL (registered trademark) ODS-3 4.6 mmI.D.×150 mm; • Column temperature: 40° C.; • Eluent: Solution A (aqua:methanol:acetic acid=90:10:0.5), and Solution B (aqua:methanol:acetic acid=10:90:0.5); • Gradient condition (eluent composition): solution A→20 min.→solution B (5 min. elution)→1 min.→solution A (12 min. elution); • Flow rate: 1.0 mL; and • Detection wavelength: 323 nm.
• Column: InertsiL (registered trademark) ODS-3 4.6 mmI.D.×150 mm; • Column temperature: 40° C.; • Eluent: Solution A (pH=2.2 phosphate buffer:acetonitrile=90:10), and Solution B (pH=2.2 phosphate buffer:acetonitrile=10:90); • Gradient condition (eluent composition): Solution A→10 min.→Solution B (2.5 min. elution)→0.5 min.→Solution A (9 min. elution); • Flow rate: 2.0 mL; and
Detection wavelength: 315nm.
Based on the peak area obtained in the liquid chromatography analysis with respect to 1 μg/mL of each test compound in plasma, the plasma concentration (μg/mL) at each time point was calculated.

[3] = Stability test in acidic or basic solution (half-life by liquid chromatography); assay type: physicochemical; details: time to 50% residual rate; for Half-life, pH 3.4 solution: phosphate buffer pH 3.4; for Half-life, pH 3.4 solution / Half-life, pH 7.3 solution: 1 mmoL/L, 37° C.; for Half-life, pH 7.3 solution: phosphate buffer pH 7.3
Procedure: The test compounds were dissolved in an acidic solution (phosphate buffer (pH3.4)) and in a basic solution (phosphate buffer (pH7.3)) at the concentration of 1 mmoL/L. Immediately after they were dissolved, each solution was analyzed with liquid chromatography using an acidic solution (phosphate buffer (pH3.4)) or basic solution (phosphate buffer (pH7.3)) as an eluent. The peak area of the test compounds was measured as the initial value. Furthermore, a time-course analysis with liquid chromatograpy was conducted to measure the peak area at each time point. The solution containing the test compound was kept in an incubator at 37° C. Based on the measured peak area of the test compounds, the percentage (%) of the peak area at each measurement time point was calculated, taking the peak area of the initial value as 100(%). The half-life (the time to show a 50% residual rate of the test compounds) of the test compounds was further calculated, and its stability was evaluated based on the half-life.

[4] = system: circulatory insufficiency model of rats induced by injection of lauric-acid into their femoral artery; experiment: Circulatory insufficiency model induced by lauric-acid in rats (lesion index); assay type: in vivo, rat; design: key: summed toe lesion grades, +5 if heel reached; max 25 points; details: male Wistar rats, average, max 25 points
Procedure: We performed this test in order to evaluate the pharmacological effect of the compounds of the present invention using a circulatory insufficiency model of rats induced by injection of lauric-acid into their femoral artery.
13-week-old male Wistar rats (body weight is 280 to 316 g), 8 rats per one group, were used. The rats were held in a supine position under anesthesia due to administration of 40 mg/kg of sodium pentobarbital by intraperitoneal injection. Then, the right femoral area was incised, thereby injecting 0.15 mL of 10 mg/mL lauric-acid solution into the femoral artery in order to induce lower limb gangrene caused by the peripheral vascular disorder. A few drops of instant adhesive (Aron-alpha; registered trademark) were used to stop bleeding, followed by topical application of antibiotics (potassium penicillin G solution) to prevent infection, and the incision site was then sutured.
The suspension was administered, by means of multiple oral dosing, 1 hour prior to and 3 hours after injection of lauric-acid and twice daily (at 10:00 and 17:00) for the following 9 days, at the dose of 30 mg/kg for each compound. […] The suspension was administered orally 3 hours prior to injection of lauric-acid at the dose of 300 mg/kg.
The extent of lesions was evaluated 3 days and 10 days after injection of lauric acid by the following criteria:
The lesion of each toe was graded and the total points of 5 toes were use as a lesion index, wherein 5 points were further added when the lesion reached the heel (i.e. the maximum lesion index was 25 points).
The shown number refers to the average value of the lesion index obtained from the evaluation.

[5] = system: bleeding time in male SD rats; experiment: Effect on bleeding time in rats (tail cutting); details: 30 mg/kg oral, max observation 60 min
Procedure: as §1, §2, §3

[6] = male, SD, rat, plasma, 10 mg/kg, 0.25 h
[7] = male, SD, rat, plasma, 10 mg/kg, 0.5 h
[8] = male, SD, rat, plasma, 10 mg/kg, 1.0 h
[9] = male, SD, rat, plasma, 10 mg/kg, 2.0 h
[10] = male, SD, rat, plasma, 10 mg/kg, 4.0 h
[11] = male, SD, rat, plasma, 10 mg/kg, 6.0 h
[12] = male, SD, rat, plasma, 10 mg/kg, 8.0 h
[13] = male, SD, rat, plasma, 10 mg/kg, from administration to 24 hours
[14] = male, SD, rat, plasma, 10 mg/kg
[15] = phosphate buffer pH 3.4, 37° C., read-out: Half-life, pH 3.4 solution (converted)
[16] = phosphate buffer pH 7.3, 37° C., read-out: Half-life, pH 7.3 solution (converted)
[17] = 30 mg/kg multiple oral dosing (1 h prior to and 3 h after lauric-acid, then twice daily for 9 days), 10 days after lauric-acid injection
[18] = 30 mg/kg multiple oral dosing (1 h prior to and 3 h after lauric-acid, then twice daily), 3 days after lauric-acid injection
[19] = 60 min between oral dosing and the tail cutting
[20] = 180 min between oral dosing and the tail cutting

CC#CCC(C)[C@H](O)/C=C/[C@@H]1[C@H]2c3cccc(CCCC(=O)O)c3O[C@H]2C[C@H]1O (mixture of isomers) [beraprost sodium]
Bleeding time ([1]; 1 mg/kg, 60 min): 42.2 min

O=c1oc2ccc(Cl)cc2c(O)c1O [B]
concentration at 0.25 h [2, 6]: 7400 ng/mL | concentration at 0.5 h [2, 7]: 4100 ng/mL | concentration at 1 h [2, 8]: 2000 ng/mL | concentration at 2 h [2, 9]: 1400 ng/mL | concentration at 4 h [2, 10]: 300 ng/mL | concentration at 6 h [2, 11]: 100 ng/mL | concentration at 8 h [2, 12]: 100 ng/mL | concentration at 12 h ([2]; male, SD, rat, plasma, 10 mg/kg, 12.0 h, read-out: plasma concentration, Mean, time point 12.0 h): 0 ng/mL | concentration at 24 h ([2]; male, SD, rat, plasma, 10 mg/kg, 24.0 h, read-out: plasma concentration, Mean, time point 24.0 h): 0 ng/mL | AUC [2, 13]: 8300 ± 2600 ng·h/mL | Cmax [2, 14]: 7400 ± 200 ng/mL | Tmax [2, 14]: 0.25 h | half-life at 1 mmoL/L [3, 15]: 53 h | half-life at 1 mmoL/L [3, 16]: 70 h

CCCCCCOc1c(O)c2ccc(O)cc2oc1=O [Compound 125]
Lesion Index after 10 days [4, 17]: 8.1 | Lesion Index after 3 days [4, 18]: 2.6 | Bleeding time [5, 19]: 8.0 min | Bleeding time [5, 20]: 8.4 min | Half-life, pH 3.4 solution [3]: >>100 hr | Half-life, pH 7.3 solution [3]: >>100 hr

CCOc1c(O)c2ccc(OC)cc2oc1=O [Compound 144]
Lesion Index after 10 days [4, 17]: 7.2 | Lesion Index after 3 days [4, 18]: 2.5 | Bleeding time [5, 19]: 8.9 min | Bleeding time [5, 20]: 8.2 min

CCCCCCOc1c(O)c2ccc(OCCO)cc2oc1=O [Compound 445]
Lesion Index after 10 days [4, 17]: 7.5 | Lesion Index after 3 days [4, 18]: 2.7 | Bleeding time [5, 19]: 9.1 min | Bleeding time [5, 20]: 8.3 min

CCCCCCCCOc1c(O)c2ccc(OCCO)cc2oc1=O [Compound 451]
Lesion Index after 10 days [4, 17]: 7.2 | Lesion Index after 3 days [4, 18]: 2.6 | Cmax (maximum plasma concentration) [2]: 25100 ± 13300 ng/mL | Tmax (time required to reach the maximum plasma concentration) [2]: 0.3 ± 0.1 h | plasma concentration, Mean, time point 0.25 h ([2]; 0.25 h): 23600 ng/mL | plasma concentration, Mean, time point 0.5 h ([2]; 0.5 h): 23600 ng/mL | plasma concentration, Mean, time point 1.0 h ([2]; 1.0 h): 17900 ng/mL | plasma concentration, Mean, time point 2.0 h ([2]; 2.0 h): 11800 ng/mL | plasma concentration, Mean, time point 4.0 h ([2]; 4.0 h): 9200 ng/mL | plasma concentration, Mean, time point 6.0 h ([2]; 6.0 h): 6800 ng/mL | plasma concentration, Mean, time point 8.0 h ([2]; 8.0 h): 3000 ng/mL | plasma concentration, Mean, time point 12.0 h ([2]; 12.0 h): 1200 ng/mL | plasma concentration, Mean, time point 24.0 h ([2]; 24.0 h): 500 ng/mL | AUC (area under the plasma concentration-time curve) ([2]; from administration to 24 hours): 99500 ± 64400 ng·h/mL | Bleeding time [5, 19]: 7.8 min | Bleeding time [5, 20]: 7.5 min | Half-life, pH 3.4 solution [3]: >>100 hr | Half-life, pH 7.3 solution [3]: >>100 hr

CCCCCCCCOc1c(O)c2ccc(OCCC(=O)O)cc2oc1=O [Compound 525]
Lesion Index after 10 days [4, 17]: 7.8 | Lesion Index after 3 days [4, 18]: 2.9 | Bleeding time [5, 19]: 8.5 min | Bleeding time [5, 20]: 8.1 min | Half-life, pH 3.4 solution [3]: >>100 hr | Half-life, pH 7.3 solution [3]: >>100 hr

CC(=O)Oc1ccccc1C(=O)O [aspirin]
Bleeding time ([1]; 100 mg/kg, 60 min): 40.2 min

O=C1CCc2cc(OCCCCc3nnnn3C3CCCCC3)ccc2N1 [cilostazol]
Bleeding time ([1]; 300 mg/kg, 60 min): 50.1 min

O=c1oc2ccccc2c(O)c1O [comparative compound A]
plasma concentration, Mean, time point 12.0 h ([2]; 12.0 h): Not detected | plasma concentration, Mean, time point 24.0 h ([2]; 24.0 h): Not detected | concentration at 0.25 h [2, 6]: 600 ng/mL | concentration at 0.5 h [2, 7]: 300 ng/mL | concentration at 1 h [2, 8]: 300 ng/mL | concentration at 2 h [2, 9]: 300 ng/mL | concentration at 4 h [2, 10]: 300 ng/mL | concentration at 6 h [2, 11]: 300 ng/mL | concentration at 8 h [2, 12]: 200 ng/mL | AUC [2, 13]: 2200 ± 100 ng·h/mL | Cmax [2, 14]: 600 ± 100 ng/mL | Tmax [2, 14]: 0.25 h | half-life at 1 mmoL/L [3, 15]: 30 h | half-life at 1 mmoL/L [3, 16]: 65 h

Clc1ccccc1CN1CCc2sccc2C1 [ticlopidine hydrochloride, reference compound]
Lesion Index after 3 days ([4]; positive control, 300 mg/kg orally 3 hours prior to lauric-acid injection, 3 days after injection): 2.8 | Lesion Index after 10 days ([4]; positive control, 300 mg/kg orally 3 hours prior to lauric-acid injection, 10 days after injection): 7.4 | Bleeding time ([1]; 300 mg/kg, 180 min): 36.1 min
